Results: article PMC8907207, “Multiplex quantification of C-terminal alpha-1-antitrypsin peptides provides a novel approach for characterizing systemic inflammation” (Scientific Reports, 2022)
Ends that are not written are not given here.

Tests used:
[1] = Benchtop stability of QC samples at room temperature; type: in vitro ADME; settings: QC in 70 g/L albumin in PBS, 60 min. at room temperature, LC-MS/MS
Method: (§1) Stability of analytes in processed samples was determined at six independent days for a time span of 20 h in the autosampler. Deviations of standing samples to freshly measured samples were below 19% at the LLOQ and below 9% for other QC levels for each analyte, respectively (Additional file 4). Stability of analytes in biological matrix was determined by consecutive cycles of freezing and thawing as well as extended intervals at room temperature from thawing to processing (approximately one hour).
(§2) Lyophilized authentic peptide standards were dissolved and diluted in a 70 g/L Albumin (from human serum, lyophilized, ≥ 99%, Sigma-Aldrich) in PBS (Sigma-Aldrich, St. Louis, MO, USA) solution. Internal standards C37^IS and C42^IS were dissolved in Milli-Q water (Millipore, Brussels, Belgium) containing 0.1% (v/v) formic acid (≥ 95%, Sigma-Aldrich) whereas C22^IS was only dissolved in ultrapure water. Mixtures of CAAPs used as calibration standards (calibrants) and quality control samples (QCs) were prepared as stock solution to a final concentration of 14 µM, respectively, (expect C40^SNP which was 5 µM) with subsequent serial dilutions. Calibrants and QCs were obtained from separate serial dilutions. Internal standard solution was prepared by adding equal volumes of each IS yielding a final concentration of 0.8 µM, respectively. All samples used for method development and validation were prepared and stored in 0.5 mL Protein LoBind Tubes (Eppendorf AG, Hamburg, Germany) in aliquots at − 80 °C until use.
(§3) Working range of calibrants was defined based on CAAPs detected in samples from healthy donors (set to approximate lower limit of quantification) and in samples from septic patients (set to middle to high calibration range) which were re-analyzed from a previously work[46]. Nine calibrants were used in total ranging from 0.01 µM to 1.5 µM thereby covering more than two orders of magnitude in concentration. Linearity was assessed determining mean linear regression coefficients of each calibration curve from 0.01 to 1.5 µM in eight independent analytical runs. However, respective LLOQs (lower limit of quantification) and ULOQs (upper limit of quantification) were defined individually based on natural occurrence (see above) and results from validation parameter directly affected individual working ranges (carry-over, specificity). Four QC samples were prepared and measured in total (QC1, QC2, QC3, and QC4) to cover the entire range of calibration. However, three QCs for each of the respective analytes were used for method validation. Carry-over was determined measuring pure albumin solutions prepared without internal standards (but equal amount and concentration of water/formic acid solution as regular internal standard solution, “blank albumin sample”) directly after the respective highest calibrants. Peak areas were compared to peak areas from respective LLOQ samples (prepared with regular internal standard solution). Specificity was assessed using single compounds at respective highest calibrant level which were prepared and calculated as described for carry-over. The specificity of analytes towards internal standards was determined using pure albumin solution with internal standard (“zero albumin sample”). Accuracy and precision was determined by back-calculated concentrations from repeated measurements of the same QC samples during one analytical run (within-run repeatability, n = 5) and from freshly prepared samples during five independent analytical runs (between-run, n = 5). Due to the unavailability of analyte-free biological matrix, selectivity of analytes were assessed in pure albumin solution containing internal standards. Matrix effects were determined calculating recovery rates and precision of each compound in human blood samples. Direct comparison between different anticoagulants (EDTA, lithium-heparin) and serum was performed using whole blood from the same human donor. […]

[2] = Freeze/thaw stability of QC samples; type: in vitro ADME; settings: QC in 70 g/L albumin in PBS, two cycles of freezing and thawing, LC-MS/MS
Method: as §1, §2, §3

[3] = QC2 (0.025 µM; C40^SNP see Table 1)
[4] = QC3 (0.3 µM; C40^SNP 0.1073 µM)

| Sequence | benchtop stability, accuracy (mean of n=3) [1, 3] | benchtop stability, deviation from freshly processed QCs (mean of n=3) [1, 3] | benchtop stability, accuracy (mean of n=3) [1, 4] | benchtop stability, deviation from freshly processed QCs (mean of n=3) [1, 4] | freeze/ thaw stability, accuracy (mean of n=3) [2, 3] | freeze/ thaw stability, deviation from freshly processed QCs (mean of n=3) [2, 3] | freeze/ thaw stability, accuracy (mean of n=3) [2, 4] | freeze/ thaw stability, deviation from freshly processed QCs (mean of n=3) [2, 4] |
| --- | --- | --- | --- | --- | --- | --- | --- | --- |
| AIPMSIPPEVKFNKPFVFLMIDQNTKSPLFMGKVVNPTQK [C40^SNP] | 104% | -1% | 101% | -2% | 103% | -3% | 100% | -3% |
| AIPMSIPPEVKFNKPFVFLMIEQNTKSPLFMGKVVNPTQK [C40^WT] | 109% | 6% | 101% | -3% | 107% | 5% | 99% | -4% |
| AMFLEAIPMSIPPEVKFNKPFVFLMIDQNTKSPLFMGKVVNPTQK [C45^SNP] | 114% | 1% | 112% | -2% | 109% | -3% | 112% | -2% |
| AMFLEAIPMSIPPEVKFNKPFVFLMIEQNTKSPLFMGKVVNPTQK [C45^WT] | 116% | 1% | 117% | -3% | 108% | -6% | 117% | -2% |
| FLEAIPMSIPPEVKFNKPFVFLMIDQNTKSPLFMGKVVNPTQK [C43^SNP] | 109% | 1% | 107% | -3% | 105% | -4% | 107% | -3% |
| FLEAIPMSIPPEVKFNKPFVFLMIEQNTKSPLFMGKVVNPTQK [C43^WT] | 110% | 4% | 109% | -1% | 103% | -2% | 108% | -2% |
| IPMSIPPEVKFNKPFVFLMIDQNTKSPLFMGKVVNPTQK [C39^SNP] | 102% | -4% | 100% | -4% | 105% | -1% | 102% | -2% |
| IPMSIPPEVKFNKPFVFLMIEQNTKSPLFMGKVVNPTQK [C39^WT] | 106% | 8% | 98% | -1% | 107% | 8% | 101% | 2% |
| LEAIPMSIPPEVKFNKPFVFLMIDQNTKSPLFMGKVVNPTQK [C42^SNP] | 104% | 1% | 101% | -3% | 105% | 2% | 100% | -4% |
| LEAIPMSIPPEVKFNKPFVFLMIEQNTKSPLFMGKVVNPTQK [C42^WT] | 102% | 1% | 101% | -3% | 104% | 2% | 100% | -4% |
| LMIDQNTKSPLFMGKVVNPTQK [C22^SNP] | 104% | 2% | 100% | 3% | 103% | 2% | 97% | 0% |
| LMIEQNTKSPLFMGKVVNPTQK [C22^WT] | 103% | 1% | 102% | 1% | 104% | 2% | 99% | -2% |
| MFLEAIPMSIPPEVKFNKPFVFLMIDQNTKSPLFMGKVVNPTQK [C44^SNP] | 114% | -2% | 115% | -2% | 109% | -6% | 115% | -2% |
| MFLEAIPMSIPPEVKFNKPFVFLMIEQNTKSPLFMGKVVNPTQK [C44^WT] | 117% | 1% | 114% | -2% | 110% | -4% | 115% | -1% |
| MSIPPEVKFNKPFVFLMIDQNTKSPLFMGKVVNPTQK [C37^SNP] | 103% | 0% | 99% | -1% | 104% | 0% | 98% | -1% |
| MSIPPEVKFNKPFVFLMIEQNTKSPLFMGKVVNPTQK [C37^WT] | 106% | 1% | 101% | -1% | 114% | 9% | 103% | 1% |
